According to ChEMBL document CHEMBL6087451, “Design, Synthesis, and Biological Evaluation of 2-Arylaminopyrimidine Derivatives as Dual Cathepsin L and JAK Inhibitors for the Treatment of Acute Lung Injury” (J Med Chem, 2025):
Calls of active or inactive are those of the source. The calls are words filed in the database; no cut-off is given here.

Key:
[1] = test system: RAW264.7; assay: Anti-inflammatory activity against mouse RAW264.7 cells assessed as inhibition of LPS-induced IL-6 level
[2] = biological target: T1, Procathepsin L (Homo sapiens, UniProt P07711); assay: Inhibition of CTSL maturation in HBE cells pretreated for 30 mis followed by LPS treatment for 16 hrs by Western blot analysis; type: cell-based; conditions: dose 0.5-5 µM, time 16.5 hrs
Target sequence in this assay (P07711 114-333 limits assumed): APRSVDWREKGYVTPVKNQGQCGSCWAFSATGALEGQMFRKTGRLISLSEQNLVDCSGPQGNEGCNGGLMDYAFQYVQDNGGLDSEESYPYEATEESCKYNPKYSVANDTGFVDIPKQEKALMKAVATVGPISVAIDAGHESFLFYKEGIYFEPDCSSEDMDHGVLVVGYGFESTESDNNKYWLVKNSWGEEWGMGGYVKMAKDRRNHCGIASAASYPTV

[3] = biological target: T1, Procathepsin L; assay: Induction of thermal stabilization of pro-CTSL in protein lysate extracted from human THP-1 cells pretreated for 6 hrs followed by heat exposure at 37 to 62 degreeC for 3 mins by CETSA; type: subcellular; conditions: time 363.0 min
Target sequence in this assay (P07711 114-333 limits assumed): as above

[4] = biological target: T1, Procathepsin L; assay: Inhibition of recombinant human Cat L using f Z-Phe-Arg-AMC as substrate preincubated for 30 mins followed by substrate addition
Target sequence in this assay (P07711 whole entry): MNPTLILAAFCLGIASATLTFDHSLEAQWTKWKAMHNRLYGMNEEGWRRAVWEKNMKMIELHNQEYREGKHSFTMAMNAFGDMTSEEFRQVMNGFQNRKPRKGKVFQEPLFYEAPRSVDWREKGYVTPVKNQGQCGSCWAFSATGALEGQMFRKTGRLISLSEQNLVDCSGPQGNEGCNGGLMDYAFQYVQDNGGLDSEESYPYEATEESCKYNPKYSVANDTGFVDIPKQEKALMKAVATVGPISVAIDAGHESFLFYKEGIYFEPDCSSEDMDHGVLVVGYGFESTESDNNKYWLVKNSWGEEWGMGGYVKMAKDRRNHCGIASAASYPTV

[5] = test system: HBE; assay: Anti-inflammatory activity against HBE cells assessed as inhibition of LPS-induced p-p65 level pretreated for 30 mis followed by LPS treatment for 16 hrs by Western blot analysis; type: functional, cell-based; conditions: Homo sapiens, dose 0.5-5 µM, time 16.5 hrs
[6] = test system: RAW264.7; assay: Cytotoxicity against mouse RAW264.7 cells assessed as cell viability at 0.5 to 5 uM; type: toxicity, cell-based; conditions: raw264.7, 5 µM, dose 0.5-5 µM
[7] = test system: RAW264.7; assay: Anti-inflammatory activity against mouse RAW264.7 cells assessed as inhibition of LPS-induced IL-1beta mRNA level at 50 to 500 nM by RT-qPCR analysis; type: functional, cell-based; conditions: dose 50-500 nM
[8] = test system: RAW264.7; assay: Anti-inflammatory activity against mouse RAW264.7 cells assessed as inhibition of LPS-induced TNF-alpha mRNA level at 50 to 500 nM by RT-qPCR analysis; type: functional, cell-based; conditions: dose 50-500 nM
[9] = test system: RAW264.7; assay: Anti-inflammatory activity against mouse RAW264.7 cells assessed as inhibition of LPS-induced p38 phosphorylation at 50 to 500 nM by Western blot analysis; type: functional, cell-based; conditions: dose 50-500 nM
[10] = test system: RAW264.7; assay: Anti-inflammatory activity against mouse RAW264.7 cells assessed as inhibition of LPS-induced iNOS level by Western blot analysis; type: functional, cell-based; conditions: dose 50-500 nM
[11] = test system: RAW264.7; assay: Anti-inflammatory activity against mouse RAW264.7 cells assessed as inhibition of LPS-induced COX-2 level by Western blot analysis; type: functional, cell-based; conditions: dose 50-500 nM
[12] = test system: Mus musculus; assay: Anti-inflammatory activity in C57BL/6 mouse model of LPS-induced acute lung injury assessed as decrease in pulmonary edema in lung at 10 mg/kg, ip treated for 3 days followed by LPS treatment after 1 hr post-compound administration on fourth day measured after 18 hrs post-LPS treatment by H and E staining based analysis; type: functional, organism-based; conditions: time 91.0 hrs
[13] = test system: Mus musculus; assay: Anti-inflammatory activity in C57BL/6 mouse model of LPS-induced acute lung injury assessed as decrease in inflammatory cell infiltration in lung at 10 mg/kg, ip treated for 3 days followed by LPS treatment after 1 hr post-compound administration on fourth day measured after 18 hrs post-LPS treatment by H and E staining based analysis; type: functional, organism-based; conditions: time 91.0 hrs
[14] = test system: Mus musculus; assay: Anti-inflammatory activity in C57BL/6 mouse model of LPS-induced acute lung injury assessed as decrease in disruption of epithelial cell structures in lung at 10 mg/kg, ip treated for 3 days followed by LPS treatment after 1 hr post-compound administration on fourth day measured after 18 hrs post-LPS treatment by H and E staining based analysis; type: functional, organism-based; conditions: time 91.0 hrs
[15] = test system: Mus musculus; assay: Anti-inflammatory activity in C57BL/6 mouse model of LPS-induced acute lung injury assessed as decrease in wet to dry ratio in lung at 10 mg/kg, ip treated for 3 days followed by LPS treatment after 1 hr post-compound administration on fourth day measured after 18 hrs post-LPS treatment; type: functional, organism-based; conditions: time 91.0 hrs
[16] = test system: Mus musculus; assay: Anti-inflammatory activity in C57BL/6 mouse model of LPS-induced acute lung injury assessed as decrease in total protein concentration in BALF at 10 mg/kg, ip treated for 3 days followed by LPS treatment after 1 hr post-compound administration on fourth day measured after 18 hrs post-LPS treatment; type: functional, organism-based; conditions: time 91.0 hrs
[17] = test system: Mus musculus; assay: Anti-inflammatory activity in C57BL/6 mouse model of LPS-induced acute lung injury assessed as decrease in TNF-alpha mRNA level in lung at 10 mg/kg, ip treated for 3 days followed by LPS treatment after 1 hr post-compound administration on fourth day measured after 18 hrs post-LPS treatment by RT-qPCR analysis; type: functional, organism-based; conditions: time 91.0 hrs
[18] = test system: Mus musculus; assay: Anti-inflammatory activity in C57BL/6 mouse model of LPS-induced acute lung injury assessed as decrease in IL-6 mRNA level in lung at 10 mg/kg, ip treated for 3 days followed by LPS treatment after 1 hr post-compound administration on fourth day measured after 18 hrs post-LPS treatment by RT-qPCR analysis; type: functional, organism-based; conditions: time 91.0 hrs
[19] = test system: Mus musculus; assay: Anti-inflammatory activity in C57BL/6 mouse model of LPS-induced acute lung injury assessed as decrease in IL-1beta mRNA level in lung at 10 mg/kg, ip treated for 3 days followed by LPS treatment after 1 hr post-compound administration on fourth day measured after 18 hrs post-LPS treatment by RT-qPCR analysis; type: functional, organism-based; conditions: time 91.0 hrs
[20] = test system: Mus musculus; assay: In vivo inhibition of mature CTSL in lung of C57BL/6 mouse model of LPS-induced acute lung injury at 10 to 20 mg/kg, ip treated for 3 days followed by LPS treatment after 1 hr post-compound administration on fourth day measured after 18 hrs post-LPS treatment by Western blot analysis; type: functional, organism-based; conditions: dose 10-20 mg/kg, time 91.0 hrs
[21] = AUC (0 to t) in Sprague-Dawley rat at 3.5 mg/kg, iv measured for 24 hrs by LC-MS/MS analysis; type: ADME, organism-based; conditions: in vivo
[22] = Cmax in Sprague-Dawley rat at 3.5 mg/kg, iv measured for 24 hrs by LC-MS/MS analysis; type: ADME, organism-based; conditions: in vivo
[23] = AUC (0 to t) in Sprague-Dawley rat at 3.5 mg/kg, ip measured for 24 hrs by LC-MS/MS analysis; type: ADME, organism-based; conditions: in vivo
[24] = AUC (0 to infinity) in Sprague-Dawley rat at 3.5 mg/kg, ip measured for 24 hrs by LC-MS/MS analysis; type: ADME, organism-based; conditions: in vivo
[25] = Half life in Sprague-Dawley rat at 3.5 mg/kg, ip measured for 24 hrs by LC-MS/MS analysis; type: ADME, organism-based; conditions: in vivo
[26] = Cmax in Sprague-Dawley rat at 3.5 mg/kg, ip measured for 24 hrs by LC-MS/MS analysis; type: ADME, organism-based; conditions: in vivo
[27] = AUC (0 to t) in Sprague-Dawley rat at 3.5 mg/kg, po measured for 24 hrs by LC-MS/MS analysis; type: ADME, organism-based; conditions: in vivo
[28] = AUC (0 to infinity) in Sprague-Dawley rat at 3.5 mg/kg, po measured for 24 hrs by LC-MS/MS analysis; type: ADME, organism-based; conditions: in vivo
[29] = Half life in Sprague-Dawley rat at 3.5 mg/kg, po measured for 24 hrs by LC-MS/MS analysis; type: ADME, organism-based; conditions: in vivo
[30] = Cmax in Sprague-Dawley rat at 3.5 mg/kg, po measured for 24 hrs by LC-MS/MS analysis; type: ADME, organism-based; conditions: in vivo
[31] = Oral bioavailability in Sprague-Dawley rat at 3.5 mg/kg measured for 24 hrs by LC-MS/MS analysis; type: ADME, organism-based; conditions: in vivo
[32] = cells; conditions: Homo sapiens, HBE
Description: Anti-inflammatory activity against HBE cells assessed as inhibition of LPS-induced IL-6 level pretreated for 30 mins followed by LPS treatment for 24 hrs by ELISA

[33] = cells; conditions: Homo sapiens, HBE; remark: listed apart in the source
Description: Anti-inflammatory activity against HBE cells assessed as inhibition of LPS-induced IL-8 level pretreated for 30 mins followed by LPS treatment for 24 hrs by ELISA

**Q.** With `Cl.Cn1cc(-c2ccnc(Nc3cccc(N)c3)n2)c2ccccc21` as the compound, how does the IC50 [1] read?
**A.** The IC50 was 50.1 nM.

**Q.** What about the inhibition [2] of the same compound?
**A.** Its inhibition is “Dose-dependent-effect”.

**Q.** What about the Activity [3] of the same compound?
**A.** Its Activity is “Active”.

**Q.** And the IC50 [4]?
**A.** Its IC50 is 690 nM.

**Q.** And the inhibition [5]?
**A.** The inhibition was “Dose-dependent-effect”.

**Q.** What about the Activity [6] of the same compound?
**A.** Its Activity is “Non-toxic”.

**Q.** And the inhibition [7]?
**A.** Its inhibition is “Active”.

**Q.** And the inhibition [8]?
**A.** Its inhibition is “Active”.

**Q.** What about the inhibition [9] of the same compound?
**A.** Its inhibition is “Active; Result Indicates Compound Suppresses Mapk Pathway”.

**Q.** And the inhibition [10]?
**A.** The inhibition was “Dose-dependent-effect”.

**Q.** What about the inhibition [11] of the same compound?
**A.** Its inhibition is “Dose-dependent-effect”.

**Q.** What about the Activity [12] of the same compound?
**A.** The Activity was “Active”.

**Q.** What about the Activity [13] of the same compound?
**A.** Its Activity is “Active”.

**Q.** And the Activity [14]?
**A.** Its Activity is “Active”.

**Q.** And the Activity [15]?
**A.** The Activity was “Active”.

**Q.** What about the Activity [16] of the same compound?
**A.** The Activity was “Active”.

**Q.** And the Activity [17]?
**A.** Its Activity is “Active”.

**Q.** What about the Activity [18] of the same compound?
**A.** Its Activity is “Active”.

**Q.** And the Activity [19]?
**A.** The Activity was “Active”.

**Q.** And the inhibition [20]?
**A.** The inhibition was “Active”.

**Q.** What about the AUC(0-t) at 24 h [21] of the same compound?
**A.** The AUC(0-t) at 24 h was 633 ng·h/mL.

**Q.** What about the Cmax [22] of the same compound?
**A.** The Cmax was 655 ng/mL.

**Q.** And the AUC(0-t) at 24 h [23]?
**A.** The AUC(0-t) at 24 h was 407 ng·h/mL.

**Q.** What about the AUC(0-inf) [24] of the same compound?
**A.** Its AUC(0-inf) is 416 ng·h/mL.

**Q.** And the half-life [25]?
**A.** Its half-life is 284 min.

**Q.** And the Cmax [26]?
**A.** Its Cmax is 193 ng/mL.

**Q.** What about the AUC(0-t) at 24 h [27] of the same compound?
**A.** Its AUC(0-t) at 24 h is 157 ng·h/mL.

**Q.** What about the AUC(0-inf) [28] of the same compound?
**A.** Its AUC(0-inf) is 159 ng·h/mL.

**Q.** And the half-life [29]?
**A.** The half-life was 193 min.

**Q.** What about the Cmax [30] of the same compound?
**A.** Its Cmax is 65.2 ng/mL.

**Q.** And the bioavailability [31]?
**A.** The bioavailability was 24.9%.

**Q.** And the IC50 [32]?
**A.** Its IC50 is 614 nM.

**Q.** What about the IC50 [33] of the same compound?
**A.** Its IC50 is 1350 nM.

**Q.** What does the source list for `Cc1ccc(Nc2nccc(-c3cn(C)c4ccccc34)n2)cc1N.Cl`?
**A.** IC50 [1]: 144 nM; inhibition [2]: Dose-dependent-effect; Activity [3]: Active; IC50 [4]: 820 nM; inhibition [5]: Dose-dependent-effect; Activity [6]: Non-toxic; inhibition [7]: Active; inhibition [8]: Active; inhibition [9]: Active; Result Indicates Compound Suppresses Mapk Pathway; inhibition [10]: Dose-dependent-effect; inhibition [11]: Dose-dependent-effect; Activity [12]: Active; Activity [13]: Active; Activity [14]: Active; Activity [15]: Active; Activity [16]: Active; Activity [17]: Active; Activity [18]: Active; Activity [19]: Active; inhibition [20]: Active; AUC(0-t) at 24 h [21]: 1630 ng·h/mL; Cmax [22]: 504 ng/mL; AUC(0-t) at 24 h [23]: 1510 ng·h/mL; AUC(0-inf) [24]: 1580 ng·h/mL; half-life [25]: 311 min; Cmax [26]: 331 ng/mL; AUC(0-t) at 24 h [27]: 830 ng·h/mL; AUC(0-inf) [28]: 1050 ng·h/mL; half-life [29]: 389 min; Cmax [30]: 193 ng/mL; bioavailability [31]: 51.1%; IC50 [32]: 1070 nM; IC50 [33]: 2080 nM
